Consider 13 compounds from ChEMBL document CHEMBL1201862, “PubChem BioAssay data set” (2004).

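Where inhibition never reached the appropriate level, the endpoint shown equals the highest concentration tested. Otherwise, values were interpolated linearly from a five-concentration, 48-hour dose response in 96-well plates. Abbreviation: GI50, concentration required for 50% inhibition of growth.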 The source made the active and inactive calls. No stated cut-off is given here; in the data, active = GI50 up to about 1.1 µM and inactive = higher.

Experiment in all cases: inhibition of tumour cell growth, NCI panel, 48 h
Experiment [1] deals with SK-OV-3.
The subject of experiment [2] is NCI-H460.
In experiment [3] the test system is LOX IMVI.
Experiment [4] has as its system SK-MEL-5.
Experiment [5] relates to K562.
Experiment [6] relates to RXF 393.
Experiment [7] concerns SF-295.
Experiment [8] relates to HOP-62.
The subject of experiment [9] is SW-620.
Experiment [10] has as its system HOP-92.
Experiment [11] concerns HT-29.
Experiment [12] deals with KM12.
The subject of experiment [13] is A549.
In experiment [14] the test system is COLO 205.
For experiment [15], the system named is M14.
In experiment [16] the test system is UACC-62.
Experiment [17] concerns HCT-15.

`CC1=C(C(=O)Nc2ccc([N+](=O)[O-])cc2)C(c2ccccc2O)C(C(=O)Nc2ccc([N+](=O)[O-])cc2)=C(C)N1`: the GI50 in experiment [1] is 21.1 µM (inactive); in experiment [2], 21.4 µM (inactive); in experiment [3] it was 16.1 µM (inactive); in [4], 16.4 µM (inactive); in [5], 17.9 µM (inactive); in experiment [6], 10.1 µM (inactive). Moreover, the GI50 was 29.6 µM (inactive) in [7]; 14.1 µM (inactive) in experiment [8]; 29.2 µM (inactive) in experiment [9]; 11.7 µM (inactive) in experiment [10]; 28.4 µM (inactive) in experiment [11]; 20.2 µM (inactive) in [12]. The GI50 in [13] was 28.2 µM (inactive); in experiment [14], 17.5 µM (inactive); in experiment [15], 19.3 µM (inactive).

For `Cc1cc(N(CCC#N)CCC#N)ccc1/N=N/c1ccccc1[N+](=O)[O-]`, the GI50 in experiment [1], in [3], in [16], in experiment [4], in experiment [5] and in experiment [6] was > 100 µM (inactive) each time. Also, the GI50 in [7] is > 100 µM (inactive); in [8] it was 43.6 µM (inactive); in experiment [9], > 100 µM (inactive); in [11], > 100 µM (inactive); in [12], > 100 µM (inactive); in [13] it was > 100 µM (inactive). Moreover, the GI50 in experiment [14] was > 100 µM (inactive); in experiment [15], > 100 µM (inactive); in experiment [17], greater than 100 µM.

Take `O=C(O)/C(Cl)=C(\Cl)C(=O)Nc1ccccc1`: the GI50 in experiment [1], in [2], in [3], in experiment [16], in experiment [4] and in experiment [5] was > 100 µM (inactive) in each case. In addition, the GI50 in [6], in [7], in experiment [8], in experiment [9], in experiment [10] and in [11] was > 100 µM (inactive) each time. Moreover, the GI50 in experiment [12] is > 100 µM (inactive); in experiment [13], > 100 µM (inactive); in [14], > 100 µM (inactive); in experiment [15] it was > 100 µM (inactive); in [17], greater than 100 µM.

`Cc1cc(C)c(C(=O)O)c(N)c1O`: the GI50 in experiment [1], in experiment [3], in [16], in experiment [4], in experiment [5] and in [6] was > 100 µM (inactive) in each case. Further, the GI50 in experiment [7], in [8], in [9], in experiment [11], in experiment [12] and in [13] was > 100 µM (inactive) in each case. Moreover, the values for the GI50 in [14], in [15] and in experiment [17] were > 100 µM (inactive), > 100 µM (inactive) and greater than 100 µM, respectively.

As to `COc1cc(C(=O)N2CCc3c([nH]c4c([N+](=O)[O-])c(OC)ccc34)C2C)cc(OC)c1OC` (configuration not stated), the GI50 in experiment [2] was > 100 µM (inactive); in experiment [3] it was > 100 µM (inactive); in experiment [16], 20.1 µM (inactive); in experiment [5] it was > 100 µM (inactive); in experiment [6], 26.7 µM (inactive); in [7] it was > 100 µM (inactive). The GI50 in [8], in experiment [9], in experiment [11], in experiment [12], in [13] and in [14] was > 100 µM (inactive) throughout. Besides, the GI50 in experiment [15] is > 100 µM (inactive); in experiment [17], greater than 100 µM.

With `CC(C)C12Cc3c(ccc4ccccc34)OC1(C)Oc1ccc3ccccc3c1C2` (configuration not stated), the GI50 in [1], in experiment [2], in experiment [3], in experiment [16], in experiment [4] and in experiment [5] was > 100 µM (inactive) in each case. For the same compound, the GI50 in experiment [6], in experiment [7], in experiment [9], in [10], in [11] and in [12] was > 100 µM (inactive) each time. Further, the GI50 in experiment [13], in experiment [14] and in experiment [15] was > 100 µM (inactive) each time.

`CC(=O)OC1=C2CC[C@@H]3C(CC[C@@]4(C)C3CC[C@@H]4OC(C)=O)[C@@]2(C)CC(C#N)C1=O` (some centres not stated): the GI50 was 18.3 µM (inactive) in experiment [1]; 24.4 µM (inactive) in experiment [2]; 16.8 µM (inactive) in [3]; 12.8 µM (inactive) in [16]; 20.2 µM (inactive) in [4]; 22.6 µM (inactive) in experiment [5]. Further, the GI50 in [6] is 23.4 µM (inactive); in [7], 32.8 µM (inactive); in experiment [8], 8.67 µM (inactive); in experiment [9], 35.7 µM (inactive); in experiment [10], 15.1 µM (inactive); in [11] it was 26.5 µM (inactive). Further, the GI50 in [12] was 30.3 µM (inactive); in experiment [13], 30.8 µM (inactive); in experiment [14], 20.8 µM (inactive); in experiment [15] it was 25.1 µM (inactive); in [17], 28.9 µM.

As to `O=S(=O)(C1=CC(S(=O)(=O)c2ccccc2)COC1)c1ccccc1` (configuration not stated), the GI50 in experiment [1], in experiment [2], in experiment [3], in experiment [16], in experiment [5] and in experiment [6] was > 100 µM (inactive) in each case. Besides, the GI50 in [7], in [8], in [9], in [11], in experiment [12] and in experiment [13] was > 100 µM (inactive) each time. For the same compound, the GI50 was > 100 µM (inactive) in experiment [14], > 100 µM (inactive) in experiment [15] and greater than 100 µM in experiment [17].

As for `COc1ccc2c3c(c(C(=O)O)oc13)C(CCC(=O)O)CC2` (configuration not stated), the GI50 in experiment [1], in experiment [2], in experiment [3], in [16], in [4] and in [6] was > 100 µM (inactive) in each case. Moreover, the GI50 in experiment [7], in [8], in experiment [9], in [10], in experiment [11] and in experiment [13] was > 100 µM (inactive) throughout. The GI50 in [14] is > 100 µM (inactive); in experiment [15], > 100 µM (inactive); in experiment [17], greater than 100 µM.

As for `COc1ccc(OC)c(NC(=O)CCC/C(CC(=O)c2ccc(O)c(OC)c2)=N\Nc2nnc(C)n2N)c1`, the GI50 in experiment [1] was > 100 µM (inactive); in experiment [2], > 100 µM (inactive); in [3] it was > 100 µM (inactive); in experiment [16], > 100 µM (inactive); in experiment [4], > 100 µM (inactive); in [5] it was 32.4 µM (inactive). Besides, the GI50 in experiment [7], in [8], in [9], in experiment [10], in [11] and in experiment [12] was > 100 µM (inactive) in each case. For the same compound, the GI50 was > 100 µM (inactive) in experiment [13], > 100 µM (inactive) in experiment [14], > 100 µM (inactive) in experiment [15] and greater than 100 µM in experiment [17].

Take `NC(=O)C(=O)CC(=O)c1ccccc1NC1=CC(=O)C(=O)c2ccccc21`: the GI50 in experiment [1] was > 100 µM (inactive); in experiment [2], 98.6 µM (inactive); in experiment [3], 14 µM (inactive); in experiment [16] it was 40.6 µM (inactive); in experiment [4], 29.3 µM (inactive); in experiment [5] it was 47 µM (inactive). The GI50 in experiment [6] was > 83.4 µM (inactive); in experiment [8] it was > 100 µM (inactive); in experiment [9], 43.8 µM (inactive); in experiment [10], 23.9 µM (inactive); in experiment [11], > 100 µM (inactive); in experiment [12] it was 54.3 µM (inactive). For the same compound, the GI50 in [13] was > 100 µM (inactive); in experiment [14], > 100 µM (inactive); in [15], 46.6 µM (inactive); in experiment [17], greater than 53.5 µM.

In the case of `Fc1ccc(C2SCc3nc4ccccc4n32)cc1` (configuration not stated), the GI50 in experiment [1] was 94.6 µM (inactive); in [2], 34.4 µM (inactive); in experiment [3] it was 49.2 µM (inactive); in experiment [16] it was > 10 µM (inactive); in experiment [4] it was 15.8 µM (inactive); in experiment [5] it was 31.3 µM (inactive). Further, the GI50 in experiment [6] is 17.2 µM (inactive); in experiment [7], 40.7 µM (inactive); in experiment [8], 35.8 µM (inactive); in experiment [9] it was 74.6 µM (inactive); in [10], 19.9 µM (inactive); in [11], 47.9 µM (inactive). Besides, the GI50 in [12] was 37.2 µM (inactive); in [13] it was 45.3 µM (inactive); in experiment [14], 57 µM (inactive); in experiment [15], 43.3 µM (inactive); in [17] it was 34.8 µM.

With `Cc1ccc(Nc2nc(C)c(C(/C=C/c3ccc(/C=C/C(=N/NC(=O)C[n+]4ccccc4)c4sc(Nc5ccc(C)cc5[N+](=O)[O-])nc4C)cc3)=N\NC(=O)C[n+]3ccccc3)s2)c([N+](=O)[O-])c1`, the GI50 in experiment [1] was > 100 µM (inactive); in [2] it was > 100 µM (inactive); in [3], 73.3 µM (inactive); in [16], 20.6 µM (inactive); in [5], 81.3 µM (inactive); in experiment [6] it was > 100 µM (inactive). Besides, the GI50 in experiment [7], in experiment [8], in experiment [9], in [11], in experiment [12] and in [13] was > 100 µM (inactive) in each case. The GI50 was > 100 µM (inactive) in experiment [14], > 100 µM (inactive) in experiment [15] and 88.1 µM in [17].
